# Laboratory results: paper PMC6383986, “Fragment-Based Covalent Ligand Screening Enables Rapid Discovery of Inhibitors for the RBR E3 Ubiquitin Ligase HOIP” (Journal of the American Chemical Society, 2019)
# What was measured:
# [1] = system: HEK293T cells overexpressing full-length HOIP, HOIL-1L, and SHARPIN; assay: CellTiter-Glo Luminescent cell viability assay, transfected cells; assay type: cell-based; conditions: 17 h
# Protocol: Thurston, Imperial College London. 2.3 × 10^6 cells were seeded into 100 mm Petri dishes in DMEM media supplemented with 10% v/v FBS (Biosera) and 1% v/v L-glutamine/penicillin/streptomycin (Sigma-Aldrich) and incubated at 37 °C overnight. The following morning the cells were transfected using either 6 µg pcDNA3 or 4.5 µg HOIP, 0.3 µg HOIL-1L and 1.2 µg SHARPIN as well as 450 ng pRDII Luc and 180 ng pRLTK (Promega) plasmids. 7 h after transfection, the cells were trypsinized and re-suspended in DMEM media supplemented with 1% v/v FBS (Biosera) and 1% v/v L-glutamine/penicillin/streptomycin (Sigma-Aldrich). […]
# Reporter assays: After incubating the plates for 17 h, Firefly and Renilla Luciferase activity was analyzed using the Dual-Luciferase® Reporter Assay System (Promega) and a BertholdTech […]
# with Mikrowin 2000 software version 4.41: using its injectors to inject 100 µL LAR II and 100 µL Stop&Glo (see manufacturer’s instructions; Promega #E1960). NF-κB regulated luciferase activity was first normalized to Renilla luciferase activity and then the fold activation relative to cells transfected with empty vector calculated. […]
# Cell viability assays: After incubating the plates for 17 h in the presence of compound, cell viability was determined using the CellTiter-Glo® Luminescent Cell Viability Assay according to manufacturer’s instructions (Promega #G7571). […]
# [2] = molecular target: T1, 3 × FLAG-tagged HOIP RBR in HEK293T cells (Homo sapiens, UniProt Q96EP0); assay: ABPP in-gel fluorescence, competition with TCO probe (15); assay type: cell-based; conditions: 30 μM 7 h pretreatment, then 3 μM (15) 2 h; vs (11i), (17), DMSO
# T1 construct: expressed in transfected cells; host or cells: HEK293T, transient, modified pcDNA3.1(+)
# From the text: PCR purification kit QIAquick Qiagen 28104
# Maxiprep Kit Endofree plasmid Maxi Kit Qiagen 12362
# E coli Competent DH5α New England C2987H
# E coli Competent BL21 GOLD(DE3) Agilent 230132
# LDS loading buffer NuPAGE 4× LDS loading buffer Invitrogen NP0008
# Trypsin Cell Culture TE Trypsin Gibco R-001-100
# Trypsin Sequencing Grade Modified Trypsin Promega V511A
# Chymotrypsin Sequencing Grade Chymotrypsin Promega V106A
# Cy5-Tetrazine Fluorescent probe for IEDDA click chemistry DC Biosciences CCR-1189-1 Tz-PEG4-Biotin Tetrazine linked biotin Jena Bioscience CLK-027-25
# NeutrAvidin beads High capacity NeutrAvidin agarose resin Thermo 29204 […]
# 5.1 Activity-based protein profiling – In-gel fluorescence […]
# HEK293T cells were cultured and transfected with 3×FLAG-tagged HOIP RBR wild type or C885A mutant, or mock as described in section 4.8 above. […] The cells were harvested and lysed (50 mM Tris-HCl, pH 7.5, 1.5 mM MgCl2, 150 mM NaCl, 5% glycerol, 0.8% v/v IGEPAL-CA630, 25 mM NaF, 1 mM Na3VO4, complete protease inhibitor), and the protein concentration was determined by the BCA assay as described in section […]
# 50 µL. The lysates were incubated at 23 °C, 600 rpm (Eppendorph Thermomixer) for 1 h, then analyzed by SDS PAGE (section 4.5) and in-gel fluorescence (LI-COR) at 700 nm, and by Western Blot as described in section 4.6 (Figure 6E and Supplementary Figures S15, S16). […]
# T1 sequence (Q96EP0 697-1072): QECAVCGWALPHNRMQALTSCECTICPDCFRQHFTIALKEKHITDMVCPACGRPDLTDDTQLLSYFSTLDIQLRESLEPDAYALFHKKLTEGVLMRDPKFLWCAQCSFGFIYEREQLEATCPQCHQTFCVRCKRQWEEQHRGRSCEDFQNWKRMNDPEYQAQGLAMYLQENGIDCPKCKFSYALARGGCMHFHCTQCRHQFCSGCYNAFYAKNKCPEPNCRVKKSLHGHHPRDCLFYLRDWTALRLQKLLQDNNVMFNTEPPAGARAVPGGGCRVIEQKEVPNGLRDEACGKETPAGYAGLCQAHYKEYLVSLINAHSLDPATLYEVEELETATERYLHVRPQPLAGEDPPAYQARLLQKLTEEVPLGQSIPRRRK
structure (smiles),measurement,setting,value
COC(=O)/C=C/CNC(=O)c1cc2c([nH]c1=O)CCCC2 [Compound 11a],effect on cell viability,[1],neither compound had any effect on cell viability
same,in-gel fluorescence of HOIP RBR labeled by probe (15),[2],significant reduction of the in-gel fluorescence of HOIP RBR
